In patent US10993926B2, “Use of IDHP in preparation of drug or health product for prevention and treatment of coronary atherosclerosis disease” (NORTHWEST UNIVERSITY, priority 2016, dated 2021):
Like-named read-outs stand apart in the source and are kept apart here.

Key:
[1] = test system: human platelet aggregation induced by ADP; assay: ADP-induced normal human platelet aggregation, turbidimetry; assay type: cell-based; settings: human PRP, ADP 3 μmol/L, compared with ADP alone (Ctrl), FIG. 6
Procedure: (§1) The whole blood samples of healthy volunteers were collected into the anticoagulant tubes and centrifuged at 800 g for 5 minutes at room temperature. The light yellow supernatant was the platelet-rich plasma (PRP); the remaining solution was further centrifuged at 4000 g for 10 minutes at room temperature, and the supernatant obtained was platelet-poor plasma (PPP).
(§2) PRP was adjusted to 3×10^5 platelets/μl with PPP, 300 μl of adjusted PRP was added to 30 μl of PBS or different concentrations of IDHP and incubated at 37° C. for 3 minutes in a blood coagulation apparatus. Collagen or ADP at a final concentration of 3 μmol/L was added to initiate the aggregation reaction of platelets. The inhibitory effect of IDHP and clopidogrel on platelet aggregation was determined by turbidimetry.

[2] = test system: zebrafish intersegmental vessels; assay: Angiogenesis in transgenic Tg (VEGFR2:GFP) zebrafish (intersegmental vessels); assay type: in vivo; settings: for Length of Blood Vessels / Number of Blood Vessels: zebrafish ISV
Procedure: The transgenic Tg (VEGFR2:GFP) zebrafishes were cultured under the standard conditions of illumination for 14 hours/dark for 10 hours at 28° C. Healthy and mature zebrafishes were put into a breeding container at a ratio of female to male 1/1 or 1/2 for mating. The fertilized eggs were obtained at 9 to 10 o'clock the next day. The fertilized eggs were sterilized and washed, then transferred to zebrafish embryo culture medium and cultured at 28° C.
Drug solution was added to a 24-well culture plate, and 24 hpf embryos were carefully transferred to wells, 8-10 per well, and culture medium was added until a total volume of 2 ml to make sure that the final concentration of DMSO in the medium was not higher than 1%. After 24-hour drug treatment, the embryos were observed under a fluorescence microscope, and the total number of intersegmental vessels in trunk and tail were counted, and the relative generation rate of ISV in each administration group was calculated. Analysis of variance between groups was performed using SPSS software.

[3] = test system: human umbilical vein endothelial cells (HUVEC); assay: Proliferation of human umbilical vein endothelial cells, CCK-8 method; assay type: cell-based; settings: 10^−9 to 10^−7 M, 48 hours, compared with blank control, P<0.01, FIG. 1
Procedure: 1.1 Detect Proliferation of Human Umbilical Vein Endothelial Cells Promoted by IDHP—CCK-8 Method
Human umbilical vein endothelial cells were seeded in a 96-well plate at a density of approximately 2,500 cells per well. After the cells were culture for 24 hours, the medium was changed for a fresh medium containing drug, 100 μl/well, and the cells were continued culturing for 48 hours. 2 hours before the end of drug treatment, CCK-8 reagent was added to the culture medium in the dark, 10 μl per well. The culture was continued for 2 hours, and then the absorbance at 450 nm was determined with a microplate reader to calculate the cell proliferation rate.

[4] = test system: human umbilical vein endothelial cells (HUVEC); assay: Migration of HUVEC, scratch method; assay type: cell-based; settings: 10^−10 to 10^−7 M, 16 hours, FIG. 2
Procedure: 1.2 Detect Migration of Human Umbilical Vein Endothelial Cells (HUVEC) Promoted by IDHP—Scratch Method
Endothelial cells were seeded on a cover slip pre-coated with gelatin in a 24-well plate at a density of about 10^5 cells per well. After the cells attached to the cover slip and reached confluence, cells were starved in a medium without serum for 4 hours. A home-made tool was used to make scratch on the cover slip with cells. The cover slip was washed twice with PBS, and a medium containing drug was added, 600 μl/well. Control group was immediately fixed with ice-cold methanol at zero time point; rest of the cells were cultured for 16 hours, and then fixed with ice-cold methanol. Images were acquired under a microscope and subjected to statistics analysis.

[5] = test system: primary human umbilical vein endothelial cells (HUVEC); assay: Tube formation of HUVEC, Matrigel gel method; assay type: cell-based; settings: 8 hours on Matrigel, compared with Ctrl control group
Procedure: 1.3 Detect Tube Formation of Human Umbilical Vein Endothelial Cells (HUVEC) Promoted by IDHP—Matrigel Gel Method
Pipette tips and 96-well plate were pre-cooled at −20° C. Matrigel gel was placed on ice and melted, and then added to the pre-cooled 96-well plate (60 μl/well). Avoid the formation of air bubbles. The plate was placed on ice for 5 minutes to level the Matrigel gel, and then put into a cell culture incubator for 30 minutes to solidify. Endothelial cells were added to the wells (5×10^4 cells/well) containing Matrigel gel, and fresh medium containing different concentrations of the drug was added, incubated at 37° C. for 8 hours. The plate was observed under a microscope, 5 fields of view were chosen at 0, 3, 6, 9 o'clock positions and the center of each well, the number of tubules and the integrity of the tubular structure were observed and images were acquired.

[6] = test system: human platelet aggregation induced by collagen; assay: Collagen-induced normal human platelet aggregation, turbidimetry; assay type: cell-based; settings: human PRP, collagen 3 μmol/L, compared with collagen alone (Ctrl), P<0.001, FIG. 6
Procedure: as §1, §2

[7] = Acute toxicity test in mice with rapid administration (IV); assay type: in vivo; settings: both sexes, mouse, in vivo, iv, mice, IV, administration completed within 5 seconds
Procedure: (§3) 4.1 Acute Toxicity Test in Mice with Rapid Administration
(§4) Sixty mice were used, half male and half female, and randomly divided into 6 groups. […] The spacing between the concentrations was 1:0.9. After the animals were fasted for 12 hours, each group was subjected to IV administration, the volume was 20 ml/kg, and the administration was completed within 5 seconds for each animal.

mice [8] = assay: as above; assay type: in vivo
Procedure: as §3, §4

[9] = Acute toxicity test in mice with slow administration (tail vein); assay type: in vivo; settings: both sexes, mouse, in vivo, intravenous, mice, tail vein, administration completed within 10 minutes, 14 days observation
Procedure: (§5) 4.2 Acute Toxicity Test in Mice with Slow Administration
(§6) After housing in the laboratory for 1 day, the test mice with qualified body weight were selected and randomly divided into groups according to body weight and sex, 10 for each group, half male and half female. According to the result of premeasurement, the absolute lethal dose was 2.4 g/kg. The mice were subjected to tail vein administration, the dose for the mice was calculated according to body weight. The doses were 2.4 g/kg, 2.2 g/kg, 2.0 g/kg, and 1.8 g/kg, respectively, and the drug delivery rate was calculated. The administration was completed within 10 minutes. The reactions of the mice were observed after the administration and the death of the mice was recorded within 14 days.
(§7) The main toxic reactions after intravenous administration were central inhibition, respiratory failure, etc. Most of the death occurred during the administration period. […] After 14 days of observation, the mortality rate of the mice was calculated.

mice [10] = assay: as above; assay type: in vivo
Procedure: as §5, §6, §7

red blood cells = assay: Hemolysis assay; assay type: cell-based, domestic rabbit; settings: rabbit 2% red blood cells, IDHP groups 2 to 10 (10^−3 mol/l), 37±0.5° C., 0.5 h to 3 h
Procedure: Arterial blood from domestic rabbit was collected, fibrin was removed, red blood cells were washed with physiological saline and then formulated into a 2% red blood cell physiological saline solution. The test was operated according to Table 4, four parallel test tubes in each group.
After the above operation, the tubes were put in water bath at 37±0.5° C., one tube from each group was taken at 0.5 h, 1 h, 2 h and 3 h respectively, centrifuged at 3000 rpm for 15 minutes. Red blood cell hemolysis was observed, at the same time, the morphology of red blood cells was observed under light microscope.

## COC(=O)[C@H](c1ccccc1Cl)N1CCc2sccc2C1 [clopidogrel, reference compound]
[1]
  inhibitory effect on ADP-induced platelet aggregation: significantly inhibited

## VEGF
[2]; 10 ng/ml
  Length of Blood Vessels: 420.0 ± 54.2 μm
  Number of Blood Vessels: 29.3 ± 3.3

## Clc1ccc(Nc2nnc(Cc3ccncc3)c3ccccc23)cc1 [PTK787, reference compound]
[2]; 0.1 μg/ml
  Number of Blood Vessels: 3.6 ± 1.3
[2]; 0.1
  Length of Blood Vessels: 36.4 ± 14.2 μm

## CC(C)OC(=O)C(O)Cc1ccc(O)c(O)c1 (stereo not drawn) [IDHP, β-(3,4-dihydroxyphenyl)-α-hydroxyisopropyl propionate]
[3]
  proliferation of vascular endothelial cell: significantly promoted
[4]
  migration of human umbilical vein endothelial cells (HUVEC): could promote the migration
[5]
  tube formation of primary HUVEC: significantly promoted
[2]; 0.01, 0.1 and 1.0 μM, 24-hour treatment, FIG. 4
  growth of intersegmental vessels and posterior longitudinal blood vessels in zebrafish: significantly promoted
[2]; calculated from total vessel length vs PTK787 control and normal control, FIG. 5
  relative generation rate of ISV: dose-dependent relationship
[2]; 0.01 μM
  Length of Blood Vessels: 287.4 ± 18.8 μm
  Number of Blood Vessels: 25.0 ± 8.6
[2]; 0.1 μM
  Length of Blood Vessels: 359.2 ± 58.2 μm
  Number of Blood Vessels: 26.1 ± 3.3
[2]; 1.0 μM
  Length of Blood Vessels: 447.6 ± 19.5 μm
[1]
  inhibitory effect on ADP-induced platelet aggregation: significantly inhibit
[6]
  inhibitory effect on collagen-induced platelet aggregation: more significant
[7]; read-out: LD50 95% confidence interval
  LD50: 370 to 486 mg/kg
[7]; read-out: LD50 (Bliss method, Feiller heterogeneity correction)
  LD50: 424 ± 58 mg/kg
[7]; read-out: LD50 (regression equation, without heterogeneity correction)
  LD50: 424 mg/kg
Mice [8]; both, mouse, in vivo, iv
  time until undead animals returned to normal: 10 min
Mice [8]; both, mouse, in vivo, iv, 320 mg/kg
  Mortality Rate (%): 0%
Mice [8]; both, mouse, in vivo, iv, 375 mg/kg
  Mortality Rate (%): 40%
Mice [8]; both, mouse, in vivo, iv, 400 mg/kg
  Mortality Rate (%): 40%
Mice [8]; both, mouse, in vivo, iv, 480 mg/kg
  Mortality Rate (%): 50%
Mice [8]; both, mouse, in vivo, iv, 530 mg/kg
  Mortality Rate (%): 100%
Mice [8]; both, mouse, in vivo, iv, 629 mg/kg
  Mortality Rate (%): 100%
Mice [8]; mice, rapid IV, dead animals
  time to death after the administration: ≤ 1 min
Mice [8]; mouse, in vivo, iv
  autopsy of dead mice, vital organs (heart, liver, spleen, lung, kidney, brain, stomach, intestine): no abnormality
[9]; read-out: LD50 95% confidence limit
  LD50 at 14 days: 1960 to 2140 mg/kg
[9]; read-out: LD50 (Bliss method)
  LD50 at 14 days: 2050 mg/kg
Mice [10]; mice, premeasurement
  absolute lethal dose: 2.4 g/kg
Mice [10]; mouse, in vivo
  anatomy findings: No abnormal changes
Red blood cells
  red blood cell hemolysis: no obvious hemolysis
